Reference: ChEMBL document CHEMBL2016453, “Design, synthesis and anticonvulsant activities of novel 1-(substituted/unsubstituted benzylidene)-4-(4-(6,8-dibromo-2-(methyl/phenyl)-4-oxoquinazolin-3(4H)-yl)phenyl) semicarbazide derivatives” (Bioorg Med Chem Lett, 2012)
Calls of active or inactive are those of the source. The calls are words filed in the database; no cut-off is given here.

Legend:
[1] = system: Rattus norvegicus; test: Anticonvulsant activity in Wistar rat maximal electroshock-induced seizures model assessed as time spend in hind leg tonic extensor phase at 30 mg/kg, po after 2 hrs relative to control; assay type: functional
[2] = system: Mus musculus; test: Anticonvulsant activity in ip dosed Swiss albino mouse assessed as protection against maximal electroshock-induced seizures after 0.5 hrs; assay type: functional; conditions: read-out: MED
[3] = system: Rattus norvegicus; test: Anticonvulsant activity in Wistar rat maximal electroshock-induced seizures model assessed as time spend in hind leg tonic extensor phase at 30 mg/kg, po after 0.5 hrs relative to control; assay type: functional
[4] = system: Rattus norvegicus; test: Anticonvulsant activity in Wistar rat assessed as protection against maximal electroshock-induced seizures at 30 mg/kg, po after 0.5 hrs; assay type: functional
[5] = system: Rattus norvegicus; test: Anticonvulsant activity in Wistar rat assessed as protection against maximal electroshock-induced seizures at 30 mg/kg, po after 1 hr; assay type: functional
[6] = system: Rattus norvegicus; test: Anticonvulsant activity in Wistar rat assessed as protection against maximal electroshock-induced seizures at 30 mg/kg, po after 2 hrs; assay type: functional
[7] = system: Rattus norvegicus; test: Anticonvulsant activity in Wistar rat assessed as protection against maximal electroshock-induced seizures at 30 mg/kg, po after 0.25 hrs; assay type: functional
[8] = system: Rattus norvegicus; test: Neurotoxicity in Wistar rat assessed as motor impairment at 30 mg/kg, po by rotorod test; assay type: toxicity, organism-based; set-up: dose 30 mg/kg, route oral; conditions: in vivo
[9] = system: Mus musculus; test: Anticonvulsant activity in ip dosed Swiss albino mouse assessed as protection against maximal electroshock-induced seizures after 4 hrs; assay type: functional; conditions: read-out: MED
[10] = system: Mus musculus; test: Neurotoxicity in Swiss albino mouse assessed as motor impairment at 300 mg/kg, ip after 0.5 hrs by rotorod test; assay type: toxicity, organism-based; set-up: dose 300 mg/kg, route intraperitoneal; conditions: in vivo
[11] = system: Rattus norvegicus; test: Anticonvulsant activity in Wistar rat maximal electroshock-induced seizures model assessed as time spend in hind leg tonic extensor phase at 30 mg/kg, po after 0.25 hrs relative to control; assay type: functional
[12] = system: Mus musculus; test: Anticonvulsant activity in ip dosed Swiss albino mouse assessed as protection against subcutaneous pentylenetetrazole-induced seizures after 4 hrs; assay type: functional; conditions: read-out: MED
[13] = system: Rattus norvegicus; test: Anticonvulsant activity in Wistar rat maximal electroshock-induced seizures model assessed as time spend in hind leg tonic extensor phase at 30 mg/kg, po after 4 hrs relative to control; assay type: functional
[14] = system: Rattus norvegicus; test: Anticonvulsant activity in Wistar rat maximal electroshock-induced seizures model assessed as time spend in hind leg tonic extensor phase at 30 mg/kg, po after 1 hr relative to control; assay type: functional
[15] = system: Mus musculus; test: Anticonvulsant activity in ip dosed Swiss albino mouse assessed as protection against subcutaneous pentylenetetrazole-induced seizures after 0.5 hrs; assay type: functional; conditions: read-out: MED
[16] = system: Mus musculus; test: Neurotoxicity in Swiss albino mouse assessed as motor impairment at 300 mg/kg, ip after 4 hrs by rotorod test; assay type: toxicity, organism-based; set-up: dose 300 mg/kg, route intraperitoneal; conditions: in vivo
[17] = system: Rattus norvegicus; test: Anticonvulsant activity in Wistar rat assessed as protection against maximal electroshock-induced seizures at 30 mg/kg, po after 4 hrs; assay type: functional
[18] = system: Mus musculus; test: Anticonvulsant activity in Swiss albino mouse assessed as protection against maximal electroshock-induced seizures at 300 mg/kg, ip after 0.5 hrs; assay type: functional, organism-based; set-up: dose 300 mg/kg
[19] = system: Mus musculus; test: Anticonvulsant activity in Swiss albino mouse assessed as protection against maximal electroshock-induced seizures at 300 mg/kg, ip after 4 hrs; assay type: functional, organism-based; set-up: dose 300 mg/kg
[20] = system: Mus musculus; test: Anticonvulsant activity in Swiss albino mouse assessed as protection against subcutaneous pentylenetetrazole-induced seizures at 300 mg/kg, ip after 4 hrs; assay type: functional, organism-based; set-up: dose 300 mg/kg
[21] = system: Mus musculus; test: Anticonvulsant activity in Swiss albino mouse assessed as protection against subcutaneous pentylenetetrazole-induced seizures at 300 mg/kg, ip after 0.5 hrs; assay type: functional, organism-based; set-up: dose 300 mg/kg
[22] = Neurotoxicity in ip dosed Swiss albino mouse assessed as maximum tolerated dose after 4 hrs by rotorod test; assay type: toxicity, organism-based; conditions: in vivo
[23] = Neurotoxicity in ip dosed Swiss albino mouse assessed as maximum tolerated dose after 0.5 hrs by rotorod test; assay type: toxicity, organism-based; conditions: in vivo

| Structure (SMILES) | Time [1] [s] | minimal effective dose [2] [mg/kg] | Time [3] [s] | Activity [4] [%] | Activity [5] [%] | Activity [6] [%] | Activity [7] [%] | Activity [8] | minimal effective dose [9] [mg/kg] | Activity [10] | Time [11] [s] | minimal effective dose [12] [mg/kg] | Time [13] [s] | Time [14] [s] | minimal effective dose [15] [mg/kg] | Activity [16] | Activity [17] [%] | Activity [19] | Activity [20] | MTD at 4 h [22] [mg/kg] | other results |
| --- | --- | --- | --- | --- | --- | --- | --- | --- | --- | --- | --- | --- | --- | --- | --- | --- | --- | --- | --- | --- | --- |
| COc1cc(/C=N/NC(=O)Nc2ccc(-n3c(C)nc4c(Br)cc(Br)cc4c3=O)cc2)ccc1O | 12.38 | 30 | 5.88 | 50 | 25 | 0 | 0 | Non-toxic | 100 | Non-toxic | 12.88 | 300 | 12.25 | 9.5 | 100 | Non-toxic | 0 | – | – | – | – |
| O=C(N/N=C/c1ccc([N+](=O)[O-])cc1)Nc1ccc(-n2c(-c3ccccc3)nc3c(Br)cc(Br)cc3c2=O)cc1 | – | – | – | – | – | – | – | – | – | – | – | – | – | – | 300 | – | – | inactive | inactive | – | Activity [18]: inactive |
| O=C1NC(=O)C(c2ccccc2)(c2ccccc2)N1 [PHENYTOIN] | 1.88 | 30 | 0 | 100 | 75 | 75 | 25 | Non-toxic | 30 | – | 7.13 | – | 1.38 | 2.63 | – | – | 75 | – | inactive | – | Activity [21]: inactive |
| Cc1nc2c(Br)cc(Br)cc2c(=O)n1-c1ccc(NC(=O)N/N=C/c2ccc(N(C)C)cc2)cc1 | 0 | 30 | 2.88 | 75 | 88 | 100 | 25 | Non-toxic | 30 | – | 8.38 | 300 | 0 | 1.38 | 100 | – | 100 | – | – | 300 | MTD at 0.5 h [23]: 300 mg/kg |
| Cc1nc2c(Br)cc(Br)cc2c(=O)n1-c1ccc(NC(=O)N/N=C/c2cccc([N+](=O)[O-])c2)cc1 | – | 100 | – | – | – | – | – | – | 300 | – | – | – | – | – | 300 | Non-toxic | – | – | inactive | – | MTD at 0.5 h [23]: 300 mg/kg |
| Cc1nc2c(Br)cc(Br)cc2c(=O)n1-c1ccc(NC(=O)N/N=C/c2ccc([N+](=O)[O-])cc2)cc1 | – | 100 | – | – | – | – | – | – | – | Non-toxic | – | 300 | – | – | – | – | – | inactive | – | 300 | Activity [21]: inactive |
| O=C(N/N=C/c1ccccc1)Nc1ccc(-n2c(-c3ccccc3)nc3c(Br)cc(Br)cc3c2=O)cc1 | – | 100 | – | – | – | – | – | – | 300 | – | – | 300 | – | – | 300 | – | – | – | – | 300 | MTD at 0.5 h [23]: 100 mg/kg |
| CCC1(C)CC(=O)NC1=O (configuration not stated) [ETHOSUXIMIDE] | – | – | – | – | – | – | – | – | – | Non-toxic | – | 300 | – | – | 100 | Non-toxic | – | inactive | – | – | Activity [18]: inactive |
